{"source": "paper PMC6510840", "about": "“A phase 1b study of transforming growth factor-beta receptor I inhibitor galunisertib in combination with sorafenib in Japanese patients with unresectable hepatocellular carcinoma” (Investigational New Drugs, 2018)", "key": {"advanced HCC": {"system": "advanced HCC", "parameters": "method as in earlier work", "details": "galunisertib monotherapy, cited from earlier work"}, "[1]": {"assay": "Noncompartmental plasma pharmacokinetics in phase 1b study", "assay_type": "in vivo, human", "details": "for Tmax / half-life / AUC(0-t) / Cmax / AUC(0-inf) / Vd/F: human, plasma; for Cmax: geometric mean (CV%); for Vd/F: read-out: VZ/F", "method": "PK analyses were conducted on patients who received at least one dose of galunisertib and had PK samples collected. The PK parameters for galunisertib were calculated by standard noncompartmental methods of analysis using Phoenix™ WinNonlin® 6.4 (Pharsight, A Certara Company; Princeton, NJ, USA). The maximum plasma concentration, time to maximum plasma concentration (tmax), area under the plasma concentration versus time curve from time zero to the last time point with a measurable concentration, and area under the plasma concentration-time curve from time zero to infinity, half-life (t1/2), apparent total body clearance (CL/F), and apparent volume of distribution during the terminal phase (Vz/F) that could be calculated from the data were reported for galunisertib from the noncompartmental PK analyses. Sorafenib PK profiles on day 22 (sorafenib monotherapy) were compared with sorafenib PK profiles on day 14 (administration of galunisertib in combination with sorafenib) within the same patient and in each cohort."}, "[2]": {"system": "Japanese patients with unresectable hepatocellular carcinoma", "assay": "Safety and tolerability (DLTs, TEAEs, SAEs, QTc) in phase 1b study", "details": "for 14 days (then 14 days rest), in combination with sorafenib", "experimental": "All eligible patients in this phase 1b, open-label, dose-escalation, multicenter, nonrandomized study received oral administration of galunisertib (160 mg or 300 mg/day) in combination with oral administration of sorafenib 800 mg/day. A cycle was defined as 28 days. Galunisertib was administered at either 80 mg twice daily or 150 mg twice daily for 14 days, followed by 14 days of galunisertib treatment rest, and sorafenib 400 mg twice daily for 28 days. Patients continued treatment until a discontinuation criterion was met.\nThe DLT evaluation period was 28 days after the first dose. Tolerability was defined as a dose where 2 or fewer of 6 patients experience DLTs. A minimum of 3 patients were planned to be enrolled in the galunisertib 160 mg/day plus sorafenib group, and a minimum of 6 patients were planned to be enrolled in the galunisertib 300 mg/day plus sorafenib group. […]\nThe sample size was determined based on the study design to evaluate the DLTs, safety, and tolerability of galunisertib in two sequential study treatment groups. […] Patients without a DLT who discontinued the study in cycle 1 due to disease progression, or discontinued sorafenib in cycle 1 for reasons other than disease progression, were assessed for appropriateness of DLT evaluation per Efficacy and Safety Evaluation Committee recommendations. […]"}, "HCC": {"system": "HCC", "parameters": "method as in PMID 18650514", "details": "sorafenib arm, global SHARP study; cited from earlier work"}, "[3]": {"details": "po, Galunisertib 160 mg/day plus sorafenib, Cycle 1 Day 14, geometric mean (CV%), n = 3"}, "[4]": {"details": "po, Galunisertib 300 mg/day plus sorafenib, Cycle 1 Day 14, geometric mean (CV%), n = 3"}}, "note": "Like-named read-outs stand apart in the source and are kept apart here. Marks after values point to notes of the source that are not given here."}
{"compound": "Cc1cccc(-c2nn3c(c2-c2ccnc4ccc(C(N)=O)cc24)CCC3)n1", "note": "[Galunisertib, galunisertib]", "values": [{"measurement": "median OS", "setting": "advanced HCC; AFP <1.5 ULN (part B), 90% CI 10.4–24.1", "result": 16.8, "unit": "months"}, {"measurement": "median OS", "setting": "advanced HCC; baseline AFP ≥1.5 ULN (part A), 90% CI 5.3–9.3", "result": 7.2, "unit": "months"}, {"measurement": "median time-to-progression (TTP)", "setting": "advanced HCC; part A, 90% CI 1.4−2.9", "result": 2.7, "unit": "months"}, {"measurement": "median time-to-progression (TTP)", "setting": "advanced HCC; part B, 90% CI 2.3–5.5", "result": 4.1, "unit": "months"}, {"measurement": "CL/F", "setting": "[1]; Galunisertib 160 mg/day plus sorafenib, Cycle 1 Day 14, geometric mean (CV%), n = 3", "result": "10.1 (4)^d L/h"}, {"measurement": "CL/F", "setting": "[1]; Galunisertib 160 mg/day plus sorafenib, Cycle 1 Day 14, geometric mean (CV%), n = 3, listed as galunisertib", "result": 10.1, "unit": "L/h"}, {"measurement": "CL/F", "setting": "[1]; Galunisertib 300 mg/day plus sorafenib, Cycle 1 Day 14, geometric mean (CV%), n = 3", "result": "13.5 (9)^d L/h"}, {"measurement": "CL/F", "setting": "[1]; Galunisertib 300 mg/day plus sorafenib, Cycle 1 Day 14, geometric mean (CV%), n = 3, listed as galunisertib", "result": 13.5, "unit": "L/h"}, {"measurement": "Tmax", "setting": "[1]; oral, both galunisertib doses (160 and 300 mg/day) plus sorafenib, post-dose, read-out: median tmax", "result": "1 to 2", "unit": "h"}, {"measurement": "half-life", "setting": "[1]; oral, both galunisertib doses (160 and 300 mg/day) plus sorafenib, read-out: mean t1/2 (converted)", "result": "~4", "unit": "h"}, {"measurement": "AUC(0-t)", "setting": "[1]; po, 160 mg/day, Galunisertib 160 mg/day plus sorafenib, Cycle 1 Day 1, geometric mean (CV%), N 7, read-out: AUC(0-6)", "result": 2800, "unit": "ng·h/mL"}, {"measurement": "Tmax", "setting": "[1]; po, 160 mg/day, Galunisertib 160 mg/day plus sorafenib, Cycle 1 Day 1, median (range), N 7, read-out: tmax", "result": 1.93, "unit": "h"}, {"measurement": "Cmax", "setting": "[1]; po, 160 mg/day, Galunisertib 160 mg/day plus sorafenib, Cycle 1 Day 1, plasma, N 7", "result": 899, "unit": "ng/mL"}, {"measurement": "AUC(0-t)", "setting": "[1]; po, 160 mg/day, Galunisertib 160 mg/day plus sorafenib, Cycle 1 Day 14, geometric mean (CV%), N 7, read-out: AUC(0-6)", "result": 3670, "unit": "ng·h/mL"}, {"measurement": "AUC(0-t)", "setting": "[1]; po, 160 mg/day, Galunisertib 160 mg/day plus sorafenib, Cycle 1 Day 14, geometric mean (CV%), n = 6, read-out: AUC(0–24)", "result": 7170, "unit": "ng·h/mL"}, {"measurement": "Tmax", "setting": "[1]; po, 160 mg/day, Galunisertib 160 mg/day plus sorafenib, Cycle 1 Day 14, median (range), N 7, read-out: tmax", "result": 1.85, "unit": "h"}, {"measurement": "Cmax", "setting": "[1]; po, 160 mg/day, Galunisertib 160 mg/day plus sorafenib, Cycle 1 Day 14, plasma, N 7", "result": 1150, "unit": "ng/mL"}, {"measurement": "AUC(0-t)", "setting": "[1]; po, 300 mg/day, Galunisertib 300 mg/day plus sorafenib, Cycle 1 Day 1, geometric mean (CV%), N 7, read-out: AUC(0-6)", "result": 5040, "unit": "ng·h/mL"}, {"measurement": "Tmax", "setting": "[1]; po, 300 mg/day, Galunisertib 300 mg/day plus sorafenib, Cycle 1 Day 1, median (range), N 7, read-out: tmax", "result": 0.93, "unit": "h"}, {"measurement": "Cmax", "setting": "[1]; po, 300 mg/day, Galunisertib 300 mg/day plus sorafenib, Cycle 1 Day 1, plasma, N 7", "result": 1900, "unit": "ng/mL"}, {"measurement": "AUC(0-t)", "setting": "[1]; po, 300 mg/day, Galunisertib 300 mg/day plus sorafenib, Cycle 1 Day 14, geometric mean (CV%), N 4, read-out: AUC(0-6)", "result": 5570, "unit": "ng·h/mL"}, {"measurement": "AUC(0-t)", "setting": "[1]; po, 300 mg/day, Galunisertib 300 mg/day plus sorafenib, Cycle 1 Day 14, geometric mean (CV%), N 4, read-out: AUC(0–24)", "result": 10600, "unit": "ng·h/mL"}, {"measurement": "Tmax", "setting": "[1]; po, 300 mg/day, Galunisertib 300 mg/day plus sorafenib, Cycle 1 Day 14, median (range), N 4, read-out: tmax", "result": 2.04, "unit": "h"}, {"measurement": "Cmax", "setting": "[1]; po, 300 mg/day, Galunisertib 300 mg/day plus sorafenib, Cycle 1 Day 14, plasma, N 4", "result": 2000, "unit": "ng/mL"}, {"measurement": "AUC(0-inf)", "setting": "[1]; [3]", "result": 7870, "unit": "ng·h/mL"}, {"measurement": "Vd/F", "setting": "[1]; [3]", "result": 62, "unit": "L"}, {"measurement": "half-life", "setting": "[1]; po, Galunisertib 160 mg/day plus sorafenib, Cycle 1 Day 14, geometric mean (range), n = 3, read-out: t1/2 (converted)", "result": 4.24, "unit": "h"}, {"measurement": "AUC(0-inf)", "setting": "[1]; [4]", "result": 11100, "unit": "ng·h/mL"}, {"measurement": "Vd/F", "setting": "[1]; [4]", "result": 78.1, "unit": "L"}, {"measurement": "half-life", "setting": "[1]; po, Galunisertib 300 mg/day plus sorafenib, Cycle 1 Day 14, geometric mean (range), n = 3, read-out: t1/2 (converted)", "result": 4.01, "unit": "h"}, {"measurement": "recommended dose of galunisertib with confirmed tolerability", "setting": "[2]", "result": 150, "unit": "mg twice daily"}]}
{"compound": "CNC(=O)c1cc(Oc2ccc(NC(=O)Nc3ccc(Cl)c(C(F)(F)F)c3)cc2)ccn1", "note": "[sorafenib]", "values": [{"measurement": "PK profile of sorafenib in combination with galunisertib", "setting": "[1]; day 14 (with galunisertib) versus day 22 (sorafenib monotherapy), data not shown", "result": "comparable to that of sorafenib administered alone"}, {"measurement": "median OS", "setting": "HCC", "result": 10.7, "unit": "months"}]}
